Test results reported in ChEMBL document CHEMBL5303761, “Data for DCP probe BI-3231” (2023).

Tests used:
[1] = biological target: Cannabinoid receptor 1 (Homo sapiens) (UniProt P21554); experiment: CB1(HU)_AGON Eurofins SafetyScreen44 (BI); details: filed as agonist; Compound concentration 10.0 uM
[2] = biological target: Prostaglandin G/H synthase 1 (Homo sapiens) (UniProt P23219); experiment: COX-1 Eurofins SafetyScreen44 (BI); details: Compound concentration 10.0 uM
[3] = biological target: Kappa-type opioid receptor (Homo sapiens) (UniProt P41145); experiment: KAPPA(KOP)_HU Eurofins SafetyScreen44 (BI); details: Compound concentration 10.0 uM
[4] = biological target: Angiotensin-converting enzyme (Homo sapiens) (UniProt P12821); experiment: ACE(HU_AMTCH400) Eurofins SafetyScreen44 (BI); details: Compound concentration 10.0 uM
[5] = biological target: Androgen receptor (Homo sapiens) (UniProt P10275); experiment: ANDROGEN/H Eurofins SafetyScreen44 (BI); details: Compound concentration 10.0 uM
[6] = biological target: Histamine H1 receptor (Homo sapiens) (UniProt P35367); experiment: H1/PYRIL/HS Eurofins SafetyScreen44 (BI); details: Compound concentration 10.0 uM
Sequence of Histamine H1 receptor (Homo sapiens) (P35367 whole entry): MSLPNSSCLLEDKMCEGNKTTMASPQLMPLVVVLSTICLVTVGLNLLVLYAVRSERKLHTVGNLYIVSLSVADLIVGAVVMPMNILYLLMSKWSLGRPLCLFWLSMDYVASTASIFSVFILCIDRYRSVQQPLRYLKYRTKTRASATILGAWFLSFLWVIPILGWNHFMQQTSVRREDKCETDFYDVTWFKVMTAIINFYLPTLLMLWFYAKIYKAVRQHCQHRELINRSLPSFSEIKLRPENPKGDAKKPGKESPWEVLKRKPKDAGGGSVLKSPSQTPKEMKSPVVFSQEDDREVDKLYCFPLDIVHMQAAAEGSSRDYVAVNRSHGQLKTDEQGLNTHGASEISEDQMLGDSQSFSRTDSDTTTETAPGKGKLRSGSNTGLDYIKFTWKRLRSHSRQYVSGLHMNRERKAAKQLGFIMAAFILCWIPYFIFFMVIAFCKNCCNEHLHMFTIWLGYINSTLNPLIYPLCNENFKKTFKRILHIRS

[7] = biological target: T1, Muscarinic acetylcholine receptor M1 (Homo sapiens) (UniProt P11229); experiment: M1/H Eurofins SafetyScreen44 (BI); details: Compound concentration 10.0 uM
T1 sequence (whole entry): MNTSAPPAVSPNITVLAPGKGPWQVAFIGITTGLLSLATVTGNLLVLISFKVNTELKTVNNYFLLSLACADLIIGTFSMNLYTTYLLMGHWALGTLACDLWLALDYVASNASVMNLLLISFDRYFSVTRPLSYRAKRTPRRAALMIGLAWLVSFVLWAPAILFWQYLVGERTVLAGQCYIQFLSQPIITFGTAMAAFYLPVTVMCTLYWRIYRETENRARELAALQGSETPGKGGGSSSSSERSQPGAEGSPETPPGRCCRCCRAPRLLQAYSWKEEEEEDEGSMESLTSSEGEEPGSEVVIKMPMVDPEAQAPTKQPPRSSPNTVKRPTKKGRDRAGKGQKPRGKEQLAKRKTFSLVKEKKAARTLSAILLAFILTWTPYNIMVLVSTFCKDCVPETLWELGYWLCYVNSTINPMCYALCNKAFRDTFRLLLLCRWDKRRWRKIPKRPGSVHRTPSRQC

[8] = biological target: Muscarinic acetylcholine receptor M3 (Homo sapiens) (UniProt P20309); experiment: M3/H Eurofins SafetyScreen44 (BI); details: Compound concentration 10.0 uM
[9] = biological target: Neuronal acetylcholine receptor; alpha4/beta2 (Homo sapiens) (UniProt P17787+P43681); experiment: N_NEURO_A4B2 Eurofins SafetyScreen44 (BI); type: protein-complex assay; details: filed as agonist, Compound concentration 10.0 uM
[10] = biological target: 3',5'-cyclic-AMP phosphodiesterase 4D (Homo sapiens) (UniProt Q08499); experiment: PDE4D2 Eurofins SafetyScreen44 (BI); details: Compound concentration 10.0 uM
Sequence of 3',5'-cyclic-AMP phosphodiesterase 4D (Homo sapiens) (Q08499 whole entry): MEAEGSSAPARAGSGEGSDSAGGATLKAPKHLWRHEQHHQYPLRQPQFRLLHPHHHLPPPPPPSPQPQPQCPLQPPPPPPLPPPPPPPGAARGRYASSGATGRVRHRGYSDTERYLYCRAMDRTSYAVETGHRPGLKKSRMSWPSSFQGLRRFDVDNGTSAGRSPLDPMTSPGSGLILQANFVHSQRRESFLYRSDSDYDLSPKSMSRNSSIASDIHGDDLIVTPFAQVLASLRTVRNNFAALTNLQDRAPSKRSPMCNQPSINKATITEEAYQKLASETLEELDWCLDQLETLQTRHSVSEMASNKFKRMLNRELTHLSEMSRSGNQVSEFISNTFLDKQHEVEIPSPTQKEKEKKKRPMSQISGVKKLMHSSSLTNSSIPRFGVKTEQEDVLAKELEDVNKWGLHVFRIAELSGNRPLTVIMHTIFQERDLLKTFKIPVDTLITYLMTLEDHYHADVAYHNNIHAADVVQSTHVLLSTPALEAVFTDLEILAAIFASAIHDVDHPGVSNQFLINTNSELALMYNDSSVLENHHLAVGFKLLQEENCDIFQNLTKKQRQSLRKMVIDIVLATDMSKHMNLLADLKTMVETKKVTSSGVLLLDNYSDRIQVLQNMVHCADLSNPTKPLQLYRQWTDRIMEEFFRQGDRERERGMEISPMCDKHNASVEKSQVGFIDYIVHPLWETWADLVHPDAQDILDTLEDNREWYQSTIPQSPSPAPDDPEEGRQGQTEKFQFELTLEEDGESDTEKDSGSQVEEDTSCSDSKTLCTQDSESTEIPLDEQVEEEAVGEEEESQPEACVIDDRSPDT

[11] = biological target: 5-hydroxytryptamine receptor 2A (Homo sapiens) (UniProt P28223); details: Compound concentration 10.0 uM
Sequence of 5-hydroxytryptamine receptor 2A (Homo sapiens) (P28223 whole entry): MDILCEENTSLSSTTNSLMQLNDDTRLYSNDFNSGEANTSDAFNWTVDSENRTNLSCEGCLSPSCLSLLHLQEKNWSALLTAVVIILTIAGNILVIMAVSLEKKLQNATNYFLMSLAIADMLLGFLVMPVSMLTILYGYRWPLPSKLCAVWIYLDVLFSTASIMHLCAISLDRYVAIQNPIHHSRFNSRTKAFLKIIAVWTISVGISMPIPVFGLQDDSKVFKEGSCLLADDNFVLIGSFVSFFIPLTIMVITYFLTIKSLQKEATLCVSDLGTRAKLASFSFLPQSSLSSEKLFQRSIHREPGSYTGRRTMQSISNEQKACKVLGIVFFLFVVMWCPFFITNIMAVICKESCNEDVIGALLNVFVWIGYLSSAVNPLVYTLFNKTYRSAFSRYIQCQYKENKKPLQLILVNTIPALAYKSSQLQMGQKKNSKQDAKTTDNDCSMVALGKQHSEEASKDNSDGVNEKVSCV

[12] = biological target: 5-hydroxytryptamine receptor 5A (Homo sapiens) (UniProt P47898); details: Compound concentration 10.0 uM
Sequence of 5-hydroxytryptamine receptor 5A (Homo sapiens) (P47898 whole entry): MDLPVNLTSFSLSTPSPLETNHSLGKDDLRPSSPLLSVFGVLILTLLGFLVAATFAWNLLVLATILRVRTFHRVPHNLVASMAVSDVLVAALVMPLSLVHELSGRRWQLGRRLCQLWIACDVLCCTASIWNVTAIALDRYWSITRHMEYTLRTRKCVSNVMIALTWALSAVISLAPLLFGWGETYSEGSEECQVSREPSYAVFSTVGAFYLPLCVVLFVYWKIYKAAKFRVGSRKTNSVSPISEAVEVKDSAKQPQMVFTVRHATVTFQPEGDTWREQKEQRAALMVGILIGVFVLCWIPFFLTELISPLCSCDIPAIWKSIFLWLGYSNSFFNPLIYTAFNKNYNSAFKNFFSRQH

[13] = biological target: 5-hydroxytryptamine receptor 7 (Homo sapiens) (UniProt P34969); details: Compound concentration 10.0 uM
Sequence of 5-hydroxytryptamine receptor 7 (Homo sapiens) (P34969 whole entry): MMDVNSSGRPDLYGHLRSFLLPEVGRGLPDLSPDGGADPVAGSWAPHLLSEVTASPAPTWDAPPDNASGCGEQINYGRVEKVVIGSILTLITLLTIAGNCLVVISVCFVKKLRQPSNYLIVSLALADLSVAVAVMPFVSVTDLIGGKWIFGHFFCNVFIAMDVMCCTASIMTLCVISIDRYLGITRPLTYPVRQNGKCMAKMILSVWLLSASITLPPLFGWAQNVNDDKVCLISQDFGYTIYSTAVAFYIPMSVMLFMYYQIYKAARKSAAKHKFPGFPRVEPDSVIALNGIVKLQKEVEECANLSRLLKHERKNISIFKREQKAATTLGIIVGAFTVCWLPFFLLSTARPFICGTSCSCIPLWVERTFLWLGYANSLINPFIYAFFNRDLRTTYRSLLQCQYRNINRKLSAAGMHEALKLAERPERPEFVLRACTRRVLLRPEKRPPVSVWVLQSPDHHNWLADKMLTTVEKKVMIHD

[14] = biological target: D(4) dopamine receptor (Homo sapiens) (UniProt P21917); details: Compound concentration 10.0 uM
Sequence of D(4) dopamine receptor (Homo sapiens) (P21917 whole entry): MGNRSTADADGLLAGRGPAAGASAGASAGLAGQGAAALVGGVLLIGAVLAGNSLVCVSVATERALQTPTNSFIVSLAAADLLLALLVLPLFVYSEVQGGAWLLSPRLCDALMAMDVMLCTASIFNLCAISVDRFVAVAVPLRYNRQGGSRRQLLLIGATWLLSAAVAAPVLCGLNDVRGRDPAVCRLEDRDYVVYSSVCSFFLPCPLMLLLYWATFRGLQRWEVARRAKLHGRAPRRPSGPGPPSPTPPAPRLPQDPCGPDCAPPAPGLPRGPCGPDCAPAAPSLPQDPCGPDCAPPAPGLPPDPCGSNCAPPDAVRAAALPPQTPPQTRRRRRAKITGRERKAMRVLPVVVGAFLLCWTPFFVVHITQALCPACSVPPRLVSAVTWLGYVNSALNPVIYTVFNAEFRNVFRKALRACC

[15] = biological target: Delta-type opioid receptor (Homo sapiens) (UniProt P41143); details: Compound concentration 10.0 uM
Sequence of Delta-type opioid receptor (Homo sapiens) (P41143 whole entry): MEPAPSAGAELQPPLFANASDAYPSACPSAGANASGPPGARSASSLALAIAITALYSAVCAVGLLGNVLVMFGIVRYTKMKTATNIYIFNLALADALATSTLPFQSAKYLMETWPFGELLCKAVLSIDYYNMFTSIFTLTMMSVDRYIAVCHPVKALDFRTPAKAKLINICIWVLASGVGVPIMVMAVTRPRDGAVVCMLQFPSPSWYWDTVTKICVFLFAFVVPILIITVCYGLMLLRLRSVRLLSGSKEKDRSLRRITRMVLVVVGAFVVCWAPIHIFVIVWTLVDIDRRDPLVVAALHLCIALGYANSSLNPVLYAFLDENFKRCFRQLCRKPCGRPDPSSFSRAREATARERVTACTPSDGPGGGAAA

[16] = biological target: T2, Alpha-1A adrenergic receptor (Homo sapiens) (UniProt P35348); details: Compound concentration 10.0 uM
T2 sequence (whole entry): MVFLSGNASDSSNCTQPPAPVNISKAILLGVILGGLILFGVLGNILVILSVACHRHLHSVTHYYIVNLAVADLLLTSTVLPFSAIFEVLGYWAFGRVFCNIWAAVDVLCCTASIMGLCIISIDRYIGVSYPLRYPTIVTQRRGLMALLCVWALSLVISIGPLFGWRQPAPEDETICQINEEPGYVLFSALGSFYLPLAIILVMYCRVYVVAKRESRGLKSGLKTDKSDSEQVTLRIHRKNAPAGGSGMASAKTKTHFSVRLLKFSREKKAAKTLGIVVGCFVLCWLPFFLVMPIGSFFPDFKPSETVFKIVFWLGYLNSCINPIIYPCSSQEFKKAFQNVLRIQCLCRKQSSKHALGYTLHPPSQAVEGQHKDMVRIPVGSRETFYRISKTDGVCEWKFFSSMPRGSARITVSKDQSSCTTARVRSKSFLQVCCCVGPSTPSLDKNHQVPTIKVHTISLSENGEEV

[17] = biological target: T3, Alpha-2A adrenergic receptor (Homo sapiens) (UniProt P08913); details: Compound concentration 10.0 uM
T3 sequence (whole entry): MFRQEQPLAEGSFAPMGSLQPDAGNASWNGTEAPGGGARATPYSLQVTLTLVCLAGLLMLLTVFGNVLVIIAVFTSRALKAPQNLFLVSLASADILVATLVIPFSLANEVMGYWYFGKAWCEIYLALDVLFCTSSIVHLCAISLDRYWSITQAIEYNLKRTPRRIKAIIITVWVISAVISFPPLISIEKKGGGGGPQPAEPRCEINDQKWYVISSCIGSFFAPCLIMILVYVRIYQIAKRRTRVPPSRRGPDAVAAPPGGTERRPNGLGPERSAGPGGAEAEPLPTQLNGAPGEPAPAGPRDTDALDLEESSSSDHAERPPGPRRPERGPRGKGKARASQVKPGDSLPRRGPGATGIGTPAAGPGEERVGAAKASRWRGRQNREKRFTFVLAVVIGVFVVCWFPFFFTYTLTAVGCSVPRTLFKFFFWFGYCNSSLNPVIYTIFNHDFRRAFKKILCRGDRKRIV

[18] = biological target: Alpha-2B adrenergic receptor (Homo sapiens) (UniProt P18089); details: Compound concentration 10.0 uM
Sequence of Alpha-2B adrenergic receptor (Homo sapiens) (P18089 whole entry): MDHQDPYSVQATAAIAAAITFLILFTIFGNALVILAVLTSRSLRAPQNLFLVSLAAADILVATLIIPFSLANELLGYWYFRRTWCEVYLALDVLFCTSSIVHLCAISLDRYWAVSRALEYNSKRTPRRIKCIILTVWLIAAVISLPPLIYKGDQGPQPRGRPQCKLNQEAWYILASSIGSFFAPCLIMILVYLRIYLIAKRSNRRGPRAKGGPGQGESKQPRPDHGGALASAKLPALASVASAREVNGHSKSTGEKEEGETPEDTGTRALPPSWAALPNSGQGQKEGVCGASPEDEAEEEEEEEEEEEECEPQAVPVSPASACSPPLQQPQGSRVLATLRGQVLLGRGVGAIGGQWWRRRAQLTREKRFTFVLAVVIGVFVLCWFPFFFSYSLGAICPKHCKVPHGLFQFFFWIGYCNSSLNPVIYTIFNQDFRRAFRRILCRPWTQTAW

[19] = biological target: T4, Muscarinic acetylcholine receptor M2 (Homo sapiens) (UniProt P08172); details: Compound concentration 10.0 uM
T4 sequence (whole entry): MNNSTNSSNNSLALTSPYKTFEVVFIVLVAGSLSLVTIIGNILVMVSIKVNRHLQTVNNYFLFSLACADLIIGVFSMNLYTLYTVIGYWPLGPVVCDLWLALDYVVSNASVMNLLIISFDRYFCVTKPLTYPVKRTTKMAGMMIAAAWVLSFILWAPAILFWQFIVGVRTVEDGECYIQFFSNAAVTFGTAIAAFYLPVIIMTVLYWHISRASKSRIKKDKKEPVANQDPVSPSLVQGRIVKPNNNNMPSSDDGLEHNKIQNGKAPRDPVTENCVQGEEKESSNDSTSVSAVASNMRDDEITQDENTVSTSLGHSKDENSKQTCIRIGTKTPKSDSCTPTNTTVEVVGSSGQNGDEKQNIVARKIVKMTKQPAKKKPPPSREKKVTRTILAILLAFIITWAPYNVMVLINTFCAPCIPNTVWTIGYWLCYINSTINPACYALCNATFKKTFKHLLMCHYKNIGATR

Rattus norvegicus = species on record: Rattus norvegicus; details: Compound concentration 10.0 uM

Sequence of Prostaglandin G/H synthase 1 (Homo sapiens) (P23219 whole entry): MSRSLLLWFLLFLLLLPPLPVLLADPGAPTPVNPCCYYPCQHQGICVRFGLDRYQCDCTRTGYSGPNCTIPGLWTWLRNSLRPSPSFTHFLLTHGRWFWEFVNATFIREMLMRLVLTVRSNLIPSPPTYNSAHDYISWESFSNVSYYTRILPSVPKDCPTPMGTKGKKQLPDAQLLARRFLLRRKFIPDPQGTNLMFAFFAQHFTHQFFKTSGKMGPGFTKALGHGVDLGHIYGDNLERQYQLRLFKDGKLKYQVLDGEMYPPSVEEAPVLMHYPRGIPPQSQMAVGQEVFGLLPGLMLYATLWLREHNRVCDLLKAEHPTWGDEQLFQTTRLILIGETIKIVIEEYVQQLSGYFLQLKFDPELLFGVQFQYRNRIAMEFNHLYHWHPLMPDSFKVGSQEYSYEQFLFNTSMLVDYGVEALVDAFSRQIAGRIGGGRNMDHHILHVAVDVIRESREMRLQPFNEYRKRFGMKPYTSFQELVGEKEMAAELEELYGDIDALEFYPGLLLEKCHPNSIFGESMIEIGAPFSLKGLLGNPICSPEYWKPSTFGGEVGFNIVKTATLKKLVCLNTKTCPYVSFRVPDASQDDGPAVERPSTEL
Sequence of Cannabinoid receptor 1 (Homo sapiens) (P21554 whole entry): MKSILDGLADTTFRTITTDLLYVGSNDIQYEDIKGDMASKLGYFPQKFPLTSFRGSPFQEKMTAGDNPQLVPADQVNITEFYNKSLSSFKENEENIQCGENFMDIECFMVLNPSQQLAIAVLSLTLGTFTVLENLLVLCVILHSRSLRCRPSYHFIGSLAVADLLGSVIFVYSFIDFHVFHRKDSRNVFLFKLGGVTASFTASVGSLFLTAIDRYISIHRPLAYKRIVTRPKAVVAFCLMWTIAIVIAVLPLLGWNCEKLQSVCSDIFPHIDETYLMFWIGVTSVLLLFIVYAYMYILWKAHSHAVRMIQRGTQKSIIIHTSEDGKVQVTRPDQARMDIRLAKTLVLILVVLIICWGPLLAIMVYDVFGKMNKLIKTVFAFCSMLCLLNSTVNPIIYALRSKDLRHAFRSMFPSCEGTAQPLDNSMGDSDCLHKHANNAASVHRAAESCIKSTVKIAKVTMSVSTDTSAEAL

CCn1c(=O)c(C)cn(Cc2nnc(-c3ccc(F)c(OC)c3F)s2)c1=O
inactive: residual activity [1] 104% | residual activity [2] 88% | residual activity [3] 110% | residual activity [4] 117% | residual activity [5] 103% | residual activity [6] 100% | residual activity [7] 100% | residual activity [8] 107% | residual activity [9] 107% | residual activity [10] 64% | inhibition [11] 3.82% | inhibition [12] 8.13% | inhibition [13] -1.29% | inhibition [14] 2.36% | inhibition [15] -0.06% | inhibition [16] -8.57% | inhibition [17] 16.4% | inhibition [18] 2.49% | inhibition [19] -0.14% | inhibition (Rattus norvegicus) -8.73%

CCn1c(=O)c(C)cn(Cc2nnc(-c3ccc(F)c(O)c3F)s2)c1=O
inactive: residual activity [1] 101% | residual activity [2] 76% | residual activity [3] 94% | residual activity [4] 99% | residual activity [5] 102% | residual activity [6] 84% | residual activity [7] 99% | residual activity [8] 96% | residual activity [9] 109% | residual activity [10] 68% | inhibition [11] 0.32% | inhibition [12] 4.72% | inhibition [13] 5.8% | inhibition [14] 9.62% | inhibition [15] 9.87% | inhibition [16] -6.48% | inhibition [17] 4.94% | inhibition [18] 5.03% | inhibition [19] -5.24% | inhibition (Rattus norvegicus) 23%
